IC50 data for 16 compounds are collected here from US20250034159A1, “INHIBITORS OF EPIDERMAL GROWTH FACTOR RECEPTOR” (ORIC Pharmaceuticals, Inc., priority 2021, published 2025).

Read-outs that look alike come from different tables or passages of the source.

Assay [1] addresses recombinant human EGFR exon 19 deletion/C797S double mutant protein (Homo sapiens (Human), UniProt P00533, C797S/DEL746-750). The assay can be described thus: Biological Activity Assay C: biochemical assay against EGFR exon 19 deletion/C797S protein (EGFR d19/CS). On the procedure: In Row A of a 384-well polypropylene plate, was added 48 μL of DMSO. In wells A1 and A24, were added 12 μL of DMSO. […] To a well in Row A were added 12 μL of each 10 mM test compound stock (100% DMSO). […] The final intermediate dilution plate contained 4×16-point compound serial dilutions in assay buffer. The DMSO concentration was 10%. The intermediate compound dilution plate was transferred to the Bravo and the “5 uL dispense into ARP.pro” protocol was run. To the black low volume assay ready plates, were added 5 μL of 40 uM Phosphosens peptide sensor/4 mM ATP working solution to each well. […] To column 24, was added 10 μL of assay buffer. The final DMSO concentration was 2.5%. […] The plates were sealed with the TopSeal-A Plus plate seals. […] Set for 90 cycles with 120 second interval. […] The slope of each curve was constructed using Dotmatics in each well, and each IC50s was calculated using a 4-parameter fit model.

Another assay deals with Ba/F3_EGFR WT cells. In words: Biological Activity Assay D: BaF3 cell proliferation assay, EGFR wild-type (BaF3 WT). Type of assay: cell-based. To be noted: Ba/F3 EGFR, read-out: BaF3 WT IC50. On the procedure:
(§1) One frozen vial of cells should be thawed into one T25 flask in 10 mL media. Keep the flask upright in the incubator.
(§2) Method: One frozen vial of cells was thawed into one T25 flask in 10 mL media and the flask was kept upright in the incubator. Cells were split 1:10 every two to three days when cells reached confluency of around 1×10^6 cells/mL. Bravo protocol files were used with Greiner 384-well plates for all steps of compound preparation, cell plating and compound addition. […] 16 μL of DMSO were added (for compounds starting at 20 μM) or 28 μL DMSO (for compounds starting at 5 μM) to 96-well V-bottom polypropylene plate: wells 1A-1H (8 compounds/plate). […] 20 μL DMSO were added to the remainder of the wells (columns 2-12) in the 96-well V-bottom plate. A Bravo liquid handler was used to make 1:3 serial dilutions from columns 1 to 11 (12 remains as DMSO only) to prepare the DMSO dilution plate. 144 μL media were added to each well of a new 96-well V-bottom polypropylene plate to prepare the intermediate dilution plate. A Bravo or 96-head Integra liquid handler was used to add and mix 6 μL of test compound from the DMSO dilution plate to the intermediate dilution plate. (1:25 dilution). Cells were transferred from a flask into a 50 mL conical, vortex gently and the number of cells were counted, with a target cell number of about 1×10^6 cells per mL. The cells were diluted in culture medium in 50 mL conical or T25 flask, and the cell suspension was added to BRAVO reservoir and then use Bravo protocol to plate the appropriate number of cells shown below in 36 μl of medium per well as follows: Ba/F3-WT-EGFR 2000 cells per well of a 384 well plate; Ba/F3-LR/CS-EGFR 2000 cells per well of a 384 well plate; and Ba/F3-d19/CS-EGFR 1500 cells per well of a 384 well plate. An extra 10 mL of dead volume was utilized in each reservoir.
(§3) Using a Bravo liquid handler, 4 μl of test compound solution was added per well from the intermediate dilution plate to plated cells (1:10 dilution from the intermediate plate, final compound dilution 1:250 and final DMSO concentration per well is 0.4%). Using the 96 BRAVO Head, 25 μl were aspirated from the intermediate dilution plate and 4 μl each were dispensed into 4 wells (square pattern) in the 384-well plate. Any remaining test compound is dispensed into a secondary plate to prevent cross contamination of cells in the intermediate compound plate. After the compounds were added, the plate was shaken at 600 rpm gently for 60 see, and the plates were incubated in a tissue culture incubator, 37° C., 5% CO2, for ˜ 72 hours. After incubation, CTG 2.0 reagent was allowed to equilibrate to room temperature (˜3 hours) and cells to reach room temperature (˜10-15 minutes) and reagent was added to cells (40 μL/well) using a Bravo liquid handler. The plates were shaken to allow proper mixing (˜5 min) and let settle for 10 minutes and were read on Tecan plate reader using the appropriate luminescence method. Data from plate reader was transferred to an excel file and entered directly into Dotmatics using the protocols under EGFR Project/Cell Proliferation/named: “BaF3_EGFRwt_CP”, “BaF3_EGFR_d19/CS_CP”, “BaF3_EGFR_LR/CS_CP”. Curves were fit with a 4-parameter model and IC50s calculated by the Dotmatics software. DMSO wells were averaged to define the high control (100% growth). The average of the highest concentration of the positive control compound (afatinib) was used to define the 0% growth and used to lock the bottom of the curves. The tops of the curves were not fixed.

A further assay has as its system BaF3_EGFR LR/CS cells. In words: Biological Activity Assay D: BaF3 cell proliferation assay, EGFR L858R/C797S mutant (BaF3 LR/CS). To be noted: Ba/F3 EGFR, read-out: BaF3 LR/CS IC50. The class given is cell-based. On the procedure: as §1, §2, §3
A further assay deals with BaF3_EGFR d19/CS cells. In words: Biological Activity Assay D: BaF3 cell proliferation assay, EGFR exon 19 deletion/C797S (BaF3 d19/CS). Type of assay: cell-based. To be noted: Ba/F3 EGFR, read-out: BaF3 d19/CS IC50. As to the method:
as §1, §2, §3

The mark [2] stands for this setting: Ba/F3_EGFR WT cells, ~72 hours, CellTiter-Glo.
Setting [3] is: BaF3_EGFR LR/CS cells, ~72 hours, CellTiter-Glo.
The mark [4] stands for this setting: BaF3_EGFR d19/CS cells, ~72 hours, CellTiter-Glo.

Sequence of recombinant human EGFR exon 19 deletion/C797S double mutant protein (P00533 other isoform, or with tags, fused parts or gaps C797S/del 1-668/del 746-750 limits assumed): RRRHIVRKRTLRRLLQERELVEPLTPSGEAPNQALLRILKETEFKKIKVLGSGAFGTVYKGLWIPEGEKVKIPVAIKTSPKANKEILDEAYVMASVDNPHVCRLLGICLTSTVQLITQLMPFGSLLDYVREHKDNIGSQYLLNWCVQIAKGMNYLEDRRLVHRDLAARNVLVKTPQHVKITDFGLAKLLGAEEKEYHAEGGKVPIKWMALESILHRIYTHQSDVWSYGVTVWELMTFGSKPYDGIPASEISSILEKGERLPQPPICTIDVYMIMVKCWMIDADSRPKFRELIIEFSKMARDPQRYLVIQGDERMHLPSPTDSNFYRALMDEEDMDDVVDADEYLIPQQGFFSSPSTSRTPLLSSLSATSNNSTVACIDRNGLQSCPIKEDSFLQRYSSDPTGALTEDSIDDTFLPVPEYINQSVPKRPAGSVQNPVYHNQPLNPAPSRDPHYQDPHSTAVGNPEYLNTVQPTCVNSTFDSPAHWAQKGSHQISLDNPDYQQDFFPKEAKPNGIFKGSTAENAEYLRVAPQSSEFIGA

`CC1(C)C[C@H](n2cc(-c3ncnc4oc(-c5ccccc5)cc34)c(-c3ccc(F)cc3)n2)CO1` (single isomer, unassigned) [Example 238]: the IC50 was 0.62 nM in assay [1], 2070 nM in the assay on Ba/F3_EGFR WT cells (setting [2]), 31 nM in the assay on BaF3_EGFR LR/CS cells (setting [3]) and 52.1 nM in the assay on BaF3_EGFR d19/CS cells (setting [4]).
For `N=[S@]1(=O)CC[C@H](n2cc(-c3ncnc4oc(-c5ccccc5)cc34)c(-c3ccc(F)cc3)n2)C1` (single isomer, unassigned) [Example 246] the same measures were 0.06 nM, 876 nM, 10.6 nM and 26.9 nM.
For `N=[S@@]1(=O)CC[C@@H](n2cc(-c3ncnc4oc(-c5ccccc5)cc34)c(-c3ccc(F)cc3)n2)C1` (single isomer, unassigned) [Example 247] the same measures were 0.09 nM, 1360 nM, 8.8 nM and 26.9 nM.
For the compound `Cn1cnc(-c2cc3c(-c4cn(C5CC5(F)F)nc4-c4ccc(F)cc4)ncnc3o2)c1` (single isomer, unassigned) [Example 273], the IC50 in assay [1] stood at 0.291 nM; in the assay on Ba/F3_EGFR WT cells (setting [2]) it was 834 nM; with BaF3_EGFR LR/CS cells (setting [3]), 22.9 nM; in the assay on BaF3_EGFR d19/CS cells (setting [4]), 24.8 nM.
For `Cn1cnc(-c2cc3c(-c4cn([C@H]5CC5(F)F)nc4-c4ccc(F)cc4)ncnc3o2)c1` (single isomer, unassigned) [Example 274] the same measures were 0.213 nM, 721 nM, 16.1 nM and 23.5 nM.
Consider `O[C@H]1C[C@@H](n2cc(-c3ncnc4oc(-c5ccccc5)cc34)c(-c3ccc(F)cc3)n2)C1` [Example 120, (1s,3s)-3-(3-(4-Fluorophenyl)-4-(6-phenylfuro[2,3-d]pyrimidin-4-yl)-1H-pyrazol-1-yl)cyclobutan-1-ol], for which the IC50 in assay [1] was found to be 0.12 nM; in the assay with Ba/F3_EGFR WT cells (setting [2]) it was 633 nM; in the assay on BaF3_EGFR LR/CS cells (setting [3]), 8.82 nM; with BaF3_EGFR d19/CS cells (setting [4]) it was 17.1 nM.
As to `O[C@H]1C[C@H](n2cc(-c3ncnc4oc(-c5ccccc5)cc34)c(-c3ccc(F)cc3)n2)C1` [Example 121, (1r,3r)-3-(3-(4-Fluorophenyl)-4-(6-phenylfuro[2,3-d]pyrimidin-4-yl)-1H-pyrazol-1-yl)cyclobutan-1-ol], the IC50 came to 0.14 nM in assay [1], 1180 nM in the assay with Ba/F3_EGFR WT cells (setting [2]), 12.6 nM in the assay with BaF3_EGFR LR/CS cells (setting [3]) and 29.8 nM in the assay with BaF3_EGFR d19/CS cells (setting [4]).
For `Fc1ccc(-c2nn(CC3CC(F)(F)C3)cc2-c2ncnc3oc(-c4ccccc4)cc23)cc1` [Example 123, 4-{1-[(3,3-difluorocyclobutyl)methyl]-3-(4-fluorophenyl)-1H-pyrazol-4-yl}-6-phenylfuro[2,3-d]pyrimidine] the same measures were 2.89 nM, 3890 nM, 96.1 nM and 260 nM.
The matching figures for `Fc1ccc(-c2nn(C[C@H]3C[C@H](F)C3)cc2-c2ncnc3oc(-c4ccccc4)cc23)cc1` [Example 124, 4-[1-{[(1r,3r)-3-fluorocyclobutyl]methyl}-3-(4-fluorophenyl)-1H-pyrazol-4-yl]-6-phenylfuro[2,3-d]pyrimidine]: 3.02 nM, 4270 nM, 230 nM and 611 nM.
Regarding `O=S1(=O)CC(n2cc(-c3ncnc4[nH]c(-c5ccccc5)nc34)c(-c3ccc(F)cc3)n2)C1` [Example 127, 3-[3-(4-Fluorophenyl)-4-(8-phenyl-9H-purin-6-yl)-1H-pyrazol-1-yl]-1λ6-thietane-1,1-dione], the IC50 in assay [1] turned out to be 0.09 nM; with Ba/F3_EGFR WT cells (setting [2]), 3680 nM; in the assay on BaF3_EGFR LR/CS cells (setting [3]) it was 15.8 nM; in the assay on BaF3_EGFR d19/CS cells (setting [4]) it was 24.6 nM.
The matching figures for `CC(C)(O)Cn1cc(-c2ncnc3[nH]c(-c4ccccc4)nc23)c(-c2ccc(F)cc2)n1` [Example 130, 1-[3-(4-Fluorophenyl)-4-(8-phenyl-9H-purin-6-yl)-1H-pyrazol-1-yl]-2-methylpropan-2-ol]: 0.12 nM, 2340 nM, 10.1 nM and 12 nM.
For `CS(=O)(=O)CCn1cc(-c2ncnc3[nH]c(-c4ccccc4)nc23)c(-c2ccc(F)cc2)n1` [Example 131, 6-{3-(4-fluorophenyl)-1-[2-(methanesulfonyl)ethyl]-1H-pyrazol-4-yl}-8-phenyl-9H-purine] the same measures were 1.04 nM, 3000 nM, 81.9 nM and 162 nM.
On to `CC(C)(C)OC(=O)N1CC(C#Cc2cc3c(-c4cn(C5CS(=O)(=O)C5)nc4-c4ccc(F)cc4)ncnc3o2)C1` [Example 132, tert-butyl 3-({4-[1-(1,1-dioxo-1λ6-thietan-3-yl)-3-(4-fluorophenyl)-1H-pyrazol-4-yl]furo[2,3-d]pyrimidin-6-yl}ethynyl)azetidine-1-carboxylate], for which the IC50 in assay [1] stood at 1.51 nM; in the assay with Ba/F3_EGFR WT cells (setting [2]), 5490 nM; with BaF3_EGFR LR/CS cells (setting [3]) it was 1160 nM; with BaF3_EGFR d19/CS cells (setting [4]) it was 860 nM.
For `O=S1(=O)CC(n2cc(-c3ncnc4oc(C#CC5CNC5)cc34)c(-c3ccc(F)cc3)n2)C1` [Example 133, 3-[4-{6-[(azetidin-3-yl)ethynyl]furo[2,3-d]pyrimidin-4-yl}-3-(4-fluorophenyl)-1H-pyrazol-1-yl]-1λ6-thietane-1,1-dione] the same measures were 7.1 nM, 7550 nM, 2190 nM and 1190 nM.
For the compound `CC(=O)NCCn1cc(-c2ncnc3oc(-c4ccccc4)cc23)c(-c2ccc(F)cc2)n1` [Example 134, N-{2-[3-(4-Fluorophenyl)-4-(6-phenylfuro[2,3-d]pyrimidin-4-yl)-1H-pyrazol-1-yl]ethyl}acetamide], the IC50 was 0.3 nM in assay [1], 1030 nM with Ba/F3_EGFR WT cells (72 h), 33.3 nM in the assay on BaF3_EGFR LR/CS cells (72 h) and 57.1 nM in the assay with BaF3_EGFR d19/CS cells (72 h).
Consider `FCCn1cc(-c2ncnc3oc(-c4ccccc4)cc23)c(-c2ccc(F)cc2)n1` [Example 135, 4-[1-(2-Fluoroethyl)-3-(4-fluorophenyl)-1H-pyrazol-4-yl]-6-phenylfuro[2,3-d]pyrimidine], for which the IC50 in assay [1] is 0.33 nM; in the assay with Ba/F3_EGFR WT cells (setting [2]), 1160 nM; with BaF3_EGFR LR/CS cells (setting [3]), 17.1 nM; in the assay with BaF3_EGFR d19/CS cells (setting [4]), 31.9 nM.
